Laboratory results published in patent US20140050778A1, “NUCLEIC ACID BINDING COMPOUNDS, METHODS OF MAKING, AND USE THEREOF” (UNIVERSITY OF ROCHESTER, priority 2010, published 2014).

Experiments:
[1] = test system: C1-S cells; assay: Total protein in cell lysates (Bradford assay); format: cell-based, mouse; conditions: increasing concentration
[2] = test system: HSA^LR transgenic mice; assay: Acute toxicity observed in treated mice; format: in vivo, mouse; conditions: 40 mg/kg intraperitoneally once per day for 5 days
Method: Mouse handling and experimental procedures were conducted in accordance with the Association for Assessment and Accreditation of Laboratory Animal Care. HSA^LR transgenic mice in line 20b expressing human skeletal actin RNA with 250 CUG repeats in the 3′ UTR were previously described (Mankodi, “Myotonic Dystrophy in Transgenic Mice Expressing an Expanded CUG Repeat,” Science 289:1769-1772 (2000), which is hereby incorporated by reference in its entirety). Age- and gender-matched HSA^LR mice (12-16 weeks old) were injected intraperitoneally with 40 mg/kg of compounds or saline alone once per day for 5 days. Mice were sacrificed one day after the last injection, and vastus muscle was obtained for splicing analysis. RNA extraction, cDNA preparation, and RT-PCR were performed as described previously. The PCR products were electrophoresed on agarose gels for separation, and scanned with a laser fluorimager (Typhoon, GE Healthcare). Quantitative analysis of amplified products was performed by ImageQuant software (Molecular Dynamics). Differences between two groups were evaluated by unpaired Student's t-test.

[3] = test system: C5-14 C2C12 mouse myoblasts ((CUG)800 RNA-MBNL1 complexes); assay: Firefly luciferase reporter with ~800 CUG repeats in hDMPK 3'UTR; format: cell-based; conditions: C5-14 myoblasts, 3 days; compound 4 0-100 μM, compound 11 0-200 μM
Method: (§1) The ability of selected compounds to inhibit the formation of CUG^exp RNA-MBNL1 complexes in mouse myoblasts was then evaluated. […] Cells were grown in 100 μl growth media in 96-well plates to 10% confluency. […] Culture media was replaced with fresh media containing 1% WST-1 reagent (Roche). After 15-20 minutes of incubation, the WST-1 containing media was transferred to a clear 96-well plate, and the absorbances at 450 nm and 690 nm measured with a PerkinElmer EnVision Plate Reader. Cells were gently rinsed (1×PBS) before incubation at -20° C. in 100 μl 1X Passive Lysis Buffer (Promega) for 10 minutes. Immediately before luminescence detection, 20 μl of each lysate was mixed with 50 μl of Luciferase Assay Reagent (Promega) in a fresh opaque-white 96-well plate. Luminescence values were normalized for well-to-well variations in viable cell numbers by dividing by the corresponding (A450 nm-[…] nm) values of the WST-1 containing media. […] Thus, CUG^exp binding compounds are capable of releasing the sequestered mRNA transcripts into the cytoplasm for translation.

[4] = test system: C1-S C2C12 mouse myoblasts; assay: Firefly luciferase reporter without CUG repeats (control); format: cell-based; conditions: C1-S cells (no CUG repeats), 3 days
Method: as §1

[5] = test system: C1-S cells; assay: WST-1 viability; format: cell-based, mouse; conditions: C1-S cells at the assay concentrations
Method: The ability of selected compounds to inhibit the formation of CUG^exp RNA-MBNL1 complexes in mouse myoblasts was then evaluated. For this study, C2C12 mouse myoblasts engineered to stably express a firefly luciferase transcript with or without ˜800 uninterrupted CUG repeats in an hDMPK 3′UTR (clones C5-14 and C1-S, respectively) were used. Cells were grown in 100 μl growth media in 96-well plates to ˜10% confluency. Compound was added at various concentrations in triplicate to both C1-S and C5-14 cultures, and incubated for 3 days. Culture media was replaced with fresh media containing 1% WST-1 reagent (Roche). After ˜15-20 minutes of incubation, the WST-1 containing media was transferred to a clear 96-well plate, and the absorbances at 450 nm and 690 nm measured with a PerkinElmer EnVision Plate Reader. Cells were gently rinsed (1×PBS) before incubation at −20° C. in 100 μl 1X Passive Lysis Buffer (Promega) for 10 minutes. Immediately before luminescence detection, 20 μl of each lysate was mixed with 50 μl of Luciferase Assay Reagent (Promega) in a fresh opaque-white 96-well plate. Luminescence values were normalized for well-to-well variations in viable cell numbers by dividing by the corresponding (A450 nm-A690 nm) values of the WST-1 containing media.

[6] = test system: mouse C2C12 myoblasts; assay: Cell permeability by fluorescence microscopy; format: cell-based; conditions: 12 h, 125 μM, intrinsic fluorescence
Method: For cell permeability studies, human fibroblasts or mouse myoblasts grown to 80% confluence were exposed to compounds for 12 hours in a 96 well tissue culture plate. After removal of the culture media (DMEM, with 10% FBS, 1% pen-strep (GIBCO)) the cells were washed twice with PBS to remove excess compounds. Cells were then imaged while in buffer under a fluorescence microscope (Olympus IX70) in the 96-well plate using a 460 nm emission filter.

Compound	concentration of total protein in cell lysates [1]	acute toxicity effects in mice [2]	luciferase activity [3]	luciferase signal [4]	WST-1 viability [5]	cell membrane penetration / localization [6]
CCc1nc2cc3ccccc3cc2cc1C(=O)N1CCC[C@H]1C(=O)N[C@@H](C/C=C\C[C@H](NC(=O)[C@@H]1CCCN1C(=O)c1cc2cc3ccccc3cc2nc1CC)C(=O)N[C@@H](CCCCN)C(=O)NCCCN)C(=O)N[C@@H](CCCCN)C(=O)NCCCN [Compound 4]	decreasing level of protein expression	significant acute toxicity effects	concentration-dependent increases in luciferase activity	concentration-dependent decrease in luciferase activity	no observable toxicity	
CCc1nc2cc3ccccc3cc2cc1C(=O)N1CCC[C@H]1C(=O)N[C@@H](C/C=C/C[C@H](NC(=O)[C@@H]1CCCN1C(=O)c1cc2cc3ccccc3cc2nc1CC)C(=O)N[C@@H](CCCCN)C(=O)NCCCN)C(=O)N[C@@H](CCCCN)C(=O)NCCCN [Compound 5]						readily penetrate cell membranes and localize in the nucleus
